Test results published in patent publication US20240409609A1, “REVERSIBLE LYSINE COVALENT MODIFIERS OF EGFR AND USES THEREOF” (Terremoto Biosciences, Inc., priority 2021, published 2024).
pIC50: −log10 of the molar value.

Columns and labels:
WT-EGFR = WT-EGFR (Homo sapiens (Human), UniProt P00533); experiment: EGFR jump dilution study; type: biochemical; details: 100-fold dilution, 1 mM ATP, up to 10 hrs
Protocol: Enzyme:inhibitor complexes were pre-formed at EGFR 100Y^1 final reaction concentration by incubating enzyme with an inhibitor at the greater concentration of either 10Y^1 inhibitor IC50, or 1:1.2 stoichiometry with enzyme.
After incubating enzyme:inhibitor complexes on ice for 30 min, reactions were diluted in two steps 100-fold into reaction buffer supplemented with 1 mM ATP, and 20 uM AssayQuant substrate (AQT0734), with final reaction volumes of 20 μL in a 384 well reaction plate. Wells were read immediately and at timepoints post-dilution for up to 10 hrs in a PerkinElmer Ensight plate reader, according to the AssayQuant manufacturer's instructions.
Data processing: Raw fluorescence signal was first background corrected by subtracting the fluorescence intensity of wells containing only the AssayQuant substrate, and no enzyme. Enzyme activity was normalized relative DMSO controls for each enzyme at each timepoint. In this way, DMSO-treated wells appear as a constant normalized activity=1 throughout the assay.
The X-axis of each of the three graphs represents the time after dilution that the enzyme activity was measured, with t=0 representing the time of jump dilution. The Y-axis of each graph provides the enzymatic activity at each time point. Enzymatic activity is normalized to the DMSO-treated control samples (i.e., the same enzyme variant treated with DMSO instead of compound). As such, a DMSO-normalized value of 1.0 represents full enzymatic activity (i.e., equivalent to the DMSO-treated control), while a value below 1.0 represents reduced activity relative to control (i.e., some degree of enzyme inhibition at the time measured). The data points over time (e.g., from 0 to 600 minutes post-dilution) are therefore indicative of the off-rate for the compound. […] Thus, the jump-dilution data provided a qualitative estimate of the off-rate kinetics for each compound against the panel of EGFR variants. Experiments were run in duplicate, resulting in two different data sets for each graph.

EGFR WT = EGFR WT (Homo sapiens (Human), UniProt P00533); experiment: EGFR biochemical assay (AssayQuant chelation-enhanced fluorescence); details: 30 min preincubation, reaction time 360 min
EGFR WT in Ba/F3 cells = EGFR WT in Ba/F3 cells (Homo sapiens (Human), UniProt P00533); experiment: Ba/F3 pEGFR assay (AlphaLISA p-EGFR Tyr1068); type: cell-based; details: 2 hrs treatment, media supplemented with EGF
Protocol: Cellular activity was determined using the Ba/F3 system for studying oncogenic mutant kinases (Warmuth 2007). […] Transduced cells were maintained in RPMI 1640 with 10% FBS. EGFR WT transduced cells were grown in media supplemented with EGF. To assay cellular activity of inhibitors, cells were treated with inhibitor from 1000X DMSO stock dilutions and incubated for 2 hrs at 37° C. 5% CO2. Subsequently, p-EGFR (Tyr1068) was quantified using a commercial sandwich immunoassay (PerkinElmer AlphaLISA SureFire assay; ALSU-PEGFR) according to the manufacturer's instructions. […] Curr Opin Oncol 19, 55-60 (2007), which is incorporated herein in its entirety.

Chain of EGFR WT (P00533 668-1210): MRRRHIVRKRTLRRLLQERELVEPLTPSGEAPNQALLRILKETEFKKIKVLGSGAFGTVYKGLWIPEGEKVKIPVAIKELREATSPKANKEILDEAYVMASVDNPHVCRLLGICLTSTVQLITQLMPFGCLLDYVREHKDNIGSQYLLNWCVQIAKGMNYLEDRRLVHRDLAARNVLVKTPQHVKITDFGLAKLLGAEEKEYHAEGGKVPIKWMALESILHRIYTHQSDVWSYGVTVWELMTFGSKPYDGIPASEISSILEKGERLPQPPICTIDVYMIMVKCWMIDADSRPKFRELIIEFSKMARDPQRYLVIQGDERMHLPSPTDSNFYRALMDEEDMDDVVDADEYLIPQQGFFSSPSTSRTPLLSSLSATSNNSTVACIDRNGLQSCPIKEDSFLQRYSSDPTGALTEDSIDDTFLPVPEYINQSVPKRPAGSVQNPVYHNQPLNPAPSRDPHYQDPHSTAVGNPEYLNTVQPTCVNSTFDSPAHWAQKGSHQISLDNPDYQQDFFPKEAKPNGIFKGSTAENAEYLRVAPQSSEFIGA
Chain of WT-EGFR (P00533 668-1210): as above
Chain of EGFR WT in Ba/F3 cells (P00533 25-1210): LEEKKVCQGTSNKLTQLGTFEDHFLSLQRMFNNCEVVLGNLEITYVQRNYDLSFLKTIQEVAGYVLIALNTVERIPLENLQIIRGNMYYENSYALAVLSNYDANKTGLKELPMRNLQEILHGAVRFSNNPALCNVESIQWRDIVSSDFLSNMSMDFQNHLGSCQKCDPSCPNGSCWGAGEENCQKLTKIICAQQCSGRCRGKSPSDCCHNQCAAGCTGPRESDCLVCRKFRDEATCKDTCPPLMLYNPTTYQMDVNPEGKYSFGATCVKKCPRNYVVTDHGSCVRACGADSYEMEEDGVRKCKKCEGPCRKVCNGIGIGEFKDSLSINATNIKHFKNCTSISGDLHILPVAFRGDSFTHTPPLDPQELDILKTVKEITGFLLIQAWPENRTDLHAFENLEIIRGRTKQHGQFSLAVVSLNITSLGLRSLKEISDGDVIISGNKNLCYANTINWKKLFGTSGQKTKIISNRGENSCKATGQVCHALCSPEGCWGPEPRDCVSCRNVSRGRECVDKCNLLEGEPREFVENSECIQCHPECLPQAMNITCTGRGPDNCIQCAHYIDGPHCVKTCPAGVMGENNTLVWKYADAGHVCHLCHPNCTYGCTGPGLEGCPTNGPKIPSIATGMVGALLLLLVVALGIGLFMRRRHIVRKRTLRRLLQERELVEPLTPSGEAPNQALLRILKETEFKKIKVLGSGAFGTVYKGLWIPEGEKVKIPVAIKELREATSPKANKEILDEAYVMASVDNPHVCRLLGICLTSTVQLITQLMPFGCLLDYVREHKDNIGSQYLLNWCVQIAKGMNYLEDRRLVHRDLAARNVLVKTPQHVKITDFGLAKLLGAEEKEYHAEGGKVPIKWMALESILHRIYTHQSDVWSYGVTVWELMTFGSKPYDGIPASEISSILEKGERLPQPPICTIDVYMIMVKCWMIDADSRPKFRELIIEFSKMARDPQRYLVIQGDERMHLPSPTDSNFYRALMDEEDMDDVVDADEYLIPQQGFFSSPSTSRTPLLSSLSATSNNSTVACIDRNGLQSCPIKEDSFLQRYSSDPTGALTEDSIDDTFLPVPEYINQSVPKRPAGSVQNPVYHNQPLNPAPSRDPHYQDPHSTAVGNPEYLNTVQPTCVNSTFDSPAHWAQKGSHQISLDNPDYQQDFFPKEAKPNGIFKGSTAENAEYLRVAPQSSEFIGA

| off-rate kinetics after jump dilution (WT-EGFR) | pIC50 (EGFR WT) | pIC50 (EGFR WT in Ba/F3 cells) | SMILES |
| --- | --- | --- | --- |
| – | < 6.00 | < 5.00 | CC(C)(O)Cn1/c(=N/C(=O)c2ccnc(N3CCN(c4cccc(O)c4C=O)CC3)c2)[nH]c2ccccc21 [Compound 131] |
| – | < 6.00 | 5.01 | CN1CCN(Cc2ccc3[nH]/c(=N\C(=O)c4ccnc(OCc5cccc(O)c5C=O)c4)n(CC(C)(C)O)c3c2)CC1 [Compound 112] |
| – | 6.97 | < 5.00 | CN1CCN(Cc2ccc3[nH]/c(=N\C(=O)c4ccnc(-c5cnn(-c6cccc(O)c6C=O)c5)c4)n(CC(C)(C)O)c3c2)CC1 [Compound 88] |
| – | 7.63 | < 5.09 | CN1CCN(Cc2ccc3[nH]/c(=N\C(=O)c4ccnc(Oc5ccc(F)c(O)c5C=O)c4)n(CC(C)(C)O)c3c2)CC1 [Compound 77] |
| – | < 6.00 | < 5.00 | CC(C)(O)Cn1/c(=N/C(=O)c2ccnc(-c3ccc(-c4cccc(O)c4C=O)cc3)c2)[nH]c2ccccc21 [Compound 132] |
| – | 7.17 | < 5.00 | CN1CCN(Cc2ccc3[nH]/c(=N\C(=O)c4ccnc(Oc5cccc(O)c5C=O)c4F)n(CC(C)(C)O)c3c2)CC1 [Compound 82] |
| – | 7.31 | < 5.00 | CN1CCN(C2CCN(c3ccc4c(c3)[nH]/c(=N\C(=O)c3ccnc(Oc5cccc(O)c5C=O)c3)n4CC(C)(C)O)CC2)CC1 [Compound 91] |
| – | 7.42 | < 5.00 | CC(C)(O)Cn1/c(=N/C(=O)c2ccnc(C#Cc3cccc(O)c3C=O)c2)[nH]c2ccccc21 [Compound 127] |

Further lines, the compound ahead of its results:

| SMILES | off-rate kinetics after jump dilution (WT-EGFR) | pIC50 (EGFR WT) | pIC50 (EGFR WT in Ba/F3 cells) |
| --- | --- | --- | --- |
| C#CCNC(=O)c1cc(Nc2cc(C3CC3)[nH]n2)nc(N2CCN(Cc3ccc(C=O)c(O)c3)CC2)n1 [Compound 1] | enzymatic activity quickly returned following dilution | – | – |
| COc1cc(N2CCC(N3CCN(C)CC3)CC2)ccc1Nc1ncc(-c2ccc(O)c(C=O)c2)c(Nc2ccccc2)n1 [Compound 3] | slow-off kinetics | – | – |
| COc1cc(N2CCC(N3CCN(C)CC3)CC2)ccc1Nc1ncc(Cl)c(Nc2ccccc2-c2cccc(C=O)c2O)n1 [Compound 6] | slow-off kinetics | < 6.00 | – |
| CN1CCN(Cc2ccc3[nH]/c(=N\C(=O)c4cncc(Oc5cccc(O)c5C=O)c4)n(CC(C)(C)O)c3c2)CC1 [Compound 55] | – | 8.27 | 5.84 |
| COc1cc(N2CCC(N3CCN(C)CC3)CC2)ccc1Nc1ncc(-c2cc(C=O)c(O)cc2OC)c(Nc2ccccc2)n1 [Compound 13] | – | 7.03 | < 5.00 |
| COc1cc(N(C)CCN(C)C)c(NC(C)=O)cc1Nc1nccc(-c2cn(Cc3cccc(C=O)c3O)c3ccccc23)n1 [Compound 7] | slow-off kinetics | – | – |
| CC(C)(O)Cn1/c(=N/C(=O)c2ccnc(Oc3cccc(O)c3C=O)c2)[nH]c2ccc(CN3CCOCC3)cc21 [Compound 76] | – | 7.87 | 5.63 |
| CN1CCN(Cc2ccc3[nH]/c(=N\C(=O)c4ccnc(C#Cc5cccc(O)c5C=O)c4)n(CC(C)(C)O)c3c2)CC1 [Compound 62] | – | 8.15 | 5.47 |
